This data set is described as follows: Human HepG2 cell viability assay in 384 well format. The note with it: HepG2 cells, read-out: Inhibition. In kind it is toxicity, cell-based. Also on record: dose 125 nL, time 70.5 hour; cytotoxicity at 70.5 h: concentration not given beside the values.
On to `CCN1CCCC1CN(Cc1ccon1)CC1CCN(CCOC)CC1` (configuration not stated), for which the cytotoxicity at 70.5 h was -9.79%.

Take `COc1ccc(C(C)NC(=O)Cn2ccc(=O)n(C)c2=O)cc1OC` (configuration not stated): the cytotoxicity at 70.5 h was -6.92%. Then `O=C(c1n[nH]cc1Cl)N1CCOC(Cc2cccc(C(F)(F)F)c2)C1` (configuration not stated), with -4.63%; and `O=C1CCC2(CCN(Cc3ccsc3)CC2)N1Cc1ccccc1`, with -10.3%; and `CCN(Cc1ccoc1)C(=O)Nc1ccccc1CN(C)C(C)=O`, with 22%. Then `Cc1cncc(Oc2ccc(CN)cc2)n1`, with -10.6%; and `O=C1N(Cc2cccc(Cl)c2)CCC12CCCNC2` (configuration not stated), with -12.1%; and `CNC(=O)C1Cn2ccnc2C2(CCN(Cc3cccc(C)n3)CC2)O1` (configuration not stated), with 0.339%.

As to `c1ncn(CC2CN(CCCOc3ccc4c(c3)OCO4)CCO2)n1` (configuration not stated), the cytotoxicity at 70.5 h was -4.94%. Next, `CCc1nc(C2CCCN2C(=O)CCc2c(C)noc2Cl)no1` (configuration not stated): -3.77%; `N#Cc1cccc(NC(=O)N2CCCC(N3CCCC3=O)C2)c1` (configuration not stated): 0.781%.

In the case of `Fc1cccc(C2(CNC3CCSC3)CCOCC2)c1` (configuration not stated), the cytotoxicity at 70.5 h is 13.3%. Next, `CCCc1n[nH]c(C2CN(C(=O)CCn3cc(C)cn3)CCO2)n1` (configuration not stated): 4.48%; `O=c1cc(CN2CCCC2)nc2n1CCCN(S(=O)(=O)C1CC1)C2`: -1.37%.

For the compound `CC(CCc1ccccc1)NC(=O)CNCCCN1CCOCC1` (configuration not stated), the cytotoxicity at 70.5 h worked out at 10.1%. Consider `CN(C)C(=O)c1n[nH]c2c1CN(CC1CCC1)C2`, for which the cytotoxicity at 70.5 h is -1.39%. Consider `CN1CCN(c2ccc(F)cc2NC(=O)NCC[S+](C)[O-])CC1` (configuration not stated), for which the cytotoxicity at 70.5 h was -2.15%. Then `COCC1CCN(C(=O)c2cn(Cc3cccc(C(F)(F)F)c3)nn2)C1` (configuration not stated), with -12.5%; and `CC(C)c1cc(C(=O)NCCc2nc(-c3cccnc3)n[nH]2)[nH]n1`, with 11.1%.

Regarding `CCc1nnc2n1CCN(C(=O)CCOc1cc(C)ccc1C)C2`, the cytotoxicity at 70.5 h is -5.39%. Then `CCC(C)NS(=O)(=O)c1ccc(C(=O)N(C)C2(C#N)CCC2)cc1` (configuration not stated), with -23.6%; and `CNS(=O)(=O)C1CCN(c2cc(C(C)C)nc(C(C)C)n2)C1` (configuration not stated), with -6.44%; and `Cc1nc(Oc2ccccc2F)sc1C(=O)O`, with -11.4%. Next, `Cc1nn(CCCNC(=O)C2CCN(S(C)(=O)=O)CC2)cc1Br`: -4.82%.

`CC(Nc1nc(-c2ccncc2)nc2c1CCNC2)c1ccccc1` (configuration not stated): the cytotoxicity at 70.5 h is -9.03%. Next, `O=C([C@H]1CCCO1)N1CCN(Cc2cccnc2)c2ncccc2C1`: 0.581%. Then `N#Cc1ccsc1C(=O)N1CCCN(Cc2cscn2)CC1`, with 5.01%; and `CCN(C)C(=O)CCN(C)Cc1cnc(C)s1`, with -0.298%; and `O=C(c1ccno1)N1CCOC[C@H](Oc2ccccc2)C1`, with -3.41%. Then `Cc1cccc(CN2CCn3c(COc4ncccn4)nnc3C2)n1`, with 4.18%; and `CC(NC(=O)NCCOc1ccc(Cl)cc1)c1nncn1C` (configuration not stated), with -12.4%; and `Cc1cc(C(F)(F)F)nc(CNc2cc(C)nc3cc(C)nn23)n1`, with -2.86%. On to `Cc1ccccc1-c1cncc(C2CCN(CCO)CC2)n1`, for which the cytotoxicity at 70.5 h is -8.45%.

For `CC(C)Nc1nc(N2CCOCC2)nc2c1CN(CC(=O)N(C)C)CC2`, the cytotoxicity at 70.5 h was found to be 26.3%. Consider `CCC1CCCN(Cc2nc3ccccc3c(=O)[nH]2)C1` (configuration not stated), for which the cytotoxicity at 70.5 h is -14%. Then `CN(Cc1ccco1)C(=O)CN1C(=O)c2cc(Cl)c(Cl)cc2C1=O`, with -16.6%; and `Cc1nc(C2CCN(C(=O)c3cc(C4CC4)[nH]n3)CC2)no1`, with -0.899%. Then `CSCCC1c2nc[nH]c2CCN1Cc1ccnc2ccccc12` (configuration not stated), with -12.3%. For the compound `CN1CCOC(C(=O)N(C)c2ccc3c(c2)CCO3)C1` (configuration not stated), the cytotoxicity at 70.5 h was -18.1%. Next, `O=C(NCc1ccccn1)NCc1ccc(Cl)s1`: 20.5%.

`Cc1csc(C(=O)N2CC(S(=O)(=O)C3CCCCC3)C2)c1`: the cytotoxicity at 70.5 h was -6.45%. Take `O=C(NCCc1ccccc1)c1cn(CCNCc2cccnc2)nn1`: the cytotoxicity at 70.5 h was -6.19%. Next, `O=C(c1ccco1)N1C[C@H]2CCCN(Cc3cccs3)[C@H]2C1`: 7.1%; `CC(C)c1ncc(CN2C[C@@H](CN3CCC(CO)CC3)[C@@H](CO)C2)cn1`: -6.31%.

For the compound `O=C1CCc2cc(NC(=O)N3CCCN(Cc4cccs4)CC3)ccc21`, the cytotoxicity at 70.5 h was -8.02%. Take `O[C@@H]1CCN(CC2CCOC2)[C@H]1Cc1cccnc1` (some centres not stated): the cytotoxicity at 70.5 h was -12.1%. Then `CC(C)c1ncc2c(n1)CN(CC(=O)Nc1ccc(Cl)cn1)CC2`, with -10.8%.

On to `O=S(=O)(c1ccc(Cl)cc1)N1CCN(CCCn2ccnc2)CC1`, for which the cytotoxicity at 70.5 h is -1.12%. Regarding `COC[C@H]1CNC(=O)[C@@H]2CCN(Cc3ccc(F)cc3)CC[C@H]12`, the cytotoxicity at 70.5 h is -1.94%. Next, `O=C(NCCN1CCCC1)C1(c2ccc(Cl)cc2)CCOCC1`: -3%; `Cc1cc(C(=O)NC2CC(=O)N(C(C)C)C2=O)c(C)n1C(C)C` (configuration not stated): -7.47%; `Cc1ccc([C@H]2CN(C(=O)CC3CCC3)C[C@@H]2N)o1`: 0.0304%. On to `Cc1cc(NCCO)nc2[nH]nc(N)c12`, for which the cytotoxicity at 70.5 h is -14.9%.

For the compound `CC(C)COCC1CN(Cc2cnn(C)c2)Cc2ncn(C)c21` (configuration not stated), the cytotoxicity at 70.5 h is -7.87%.

In the case of `COCc1nc(N(C)C/C=C/c2ccccc2)c2cnn(C)c2n1`, the cytotoxicity at 70.5 h was -8.43%.

For `CCN(CC)CC[C@H]1CN(C(=O)CC(C)(C)C)CC[C@H]1CC(=O)O`, the cytotoxicity at 70.5 h was -4.24%.

In the case of `O=C(C1CCC1)N1CCC2(CC1)OCCO2`, the cytotoxicity at 70.5 h is -7.76%. Next, `CC(C)c1nc(CN(C)C2CCN(CCn3cc(C#N)cn3)C2)no1` (configuration not stated): -14.7%; `Cc1ccc(C(=O)N2CCC3(CC2)CCN(CCN(C)C)C3=O)cn1`: -8.77%. Then `CC(C)CN1CC2(CCN(C(=O)C3CNC(=O)N3)CC2)CC1=O` (configuration not stated), with -9.7%; and `CCOc1cncc(NCCc2nnc3ccccn23)n1`, with -4.67%; and `Cc1cccc(NC(=O)N2CCCn3cnc(CN4CCCC4)c3C2)c1`, with -1.43%.

Take `COc1cccnc1-c1ccc(F)c2c1OC(CN)C2` (configuration not stated): the cytotoxicity at 70.5 h is 3.56%.

In the case of `CCCc1cc(C(=O)N2CCOC(c3nc(-c4cccs4)no3)C2)no1` (configuration not stated), the cytotoxicity at 70.5 h worked out at 1.76%.

For `CCOCCC1(C(=O)N2CCCC(c3ncc[nH]3)C2)CCCC1` (configuration not stated), the cytotoxicity at 70.5 h was -16.4%.

Regarding `NC(=O)NC(=O)CCn1ccc(-c2ccsc2)n1`, the cytotoxicity at 70.5 h is -1.15%.

As for `Cc1ccc2cc(C3(O)CCN(C)CC3)ccc2n1`, the cytotoxicity at 70.5 h is -0.603%. Next, `CN(CCOc1cccc(CNC(=O)C2CC2)c1)C1CCOCC1`: -8.5%; `CS(=O)(=O)NCc1cnc2n1CCN(Cc1ccco1)CC2`: -6.2%. With `CC(C)NC(=O)NCc1cc(-c2ccco2)n(CC(F)(F)F)n1`, the cytotoxicity at 70.5 h is -5.8%. Next, `O=C(NC[C@H]1COCc2nc3cc(F)ccc3n21)c1cccnc1`: -2.79%; `CC(=O)N1N=C(c2ccccc2)OC1C(=O)N(C)CCc1ccccc1` (configuration not stated): 20%.
